Test in all cases: NCI-60 cell line screen, 48 h
The test system of experiment [1] is BT-549 breast.
Experiment [2] deals with HOP-62 NSCLC.
Experiment [3] has as its system IGROV1 ovarian.
For experiment [4], the system named is KM12 colon.
In experiment [5] the test system is MOLT-4 leukemia.
In experiment [6] the test system is NCI-H226 lung.
Experiment [7] concerns NCI/ADR-RES ovarian.
In experiment [8] the test system is PC-3 prostate.
Experiment [9] relates to SK-MEL-2 melanoma.
The test system of experiment [10] is SK-OV-3 ovarian.

“And” between values parts separate entries of the source, which are not always exact repeats. Equal values may be shown once.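 Five compound concentrations were applied to cells in 96-well plates for 48 hours; endpoints were derived by simple linear interpolation of the resulting dose-response curve. Here, GI50 denotes the concentration required for 50% inhibition of growth. TGI: concentration producing complete growth inhibition.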

On to `CCCCCCCCCCCCNC(=O)[C@H]1CSC(c2cc(Br)cs2)N1` (stereo not given in full), for which the GI50 was 0.894 µM in experiment [1]; 0.822 µM in [2]; 1 µM in experiment [3]; 1.05 µM in [4]; 0.774 µM in experiment [5]; 0.895 µM in experiment [6]. The GI50 was 1.11 µM in experiment [7], 0.981 µM in experiment [8], 0.916 µM in experiment [9] and 1.06 µM in experiment [10]. The TGI in experiment [1] is 1.78 µM; in experiment [2] it was 1.56 µM; in [3] it was 2.19 µM; in experiment [4] it was 2.37 µM; in [5] it was 1.76 µM; in experiment [6], 1.76 µM. For the same compound, the TGI in experiment [7] came to 2.47 µM; in experiment [8], 2.25 µM; in experiment [9] it was 1.77 µM; in experiment [10] it was 2.23 µM.
Regarding `Cc1ccc2nc3sc(=O)sc3nc2c1`, the TGI was 28.7 µM in experiment [1]; 30.6 µM in experiment [2]; 31.7 µM in experiment [3]; 28.9 µM in [4]; 50.1 µM in [5]; 27.9 µM in experiment [6]. Moreover, the TGI in experiment [7] was 30.9 µM; in experiment [8] it was 27.3 µM; in experiment [9], 29 µM; in experiment [10], 34.6 µM.
With `COc1cc(-c2ccc(Nc3ccccc3C(=O)O)c(OC)c2)ccc1Nc1ccccc1C(=O)O`, the TGI was 57.4 µM in [1]; 49.8 µM in experiment [2]; more than 100 µM in [3]; more than 70.9 µM in experiment [4]; more than 100 µM in experiment [5]; 60.7 µM in [6]. In addition, the TGI is more than 100 µM in experiment [7], more than 67.4 µM in [8], 58.6 µM in experiment [9] and more than 100 µM in [10].
Regarding `NC(Cn1ccc(=O)c(O)c1)C(=O)O` (stereo not given), the TGI in experiment [1], in experiment [2], in [3], in experiment [4], in experiment [5] and in [6] was more than 100 µM throughout. The TGI in [7], in experiment [8], in experiment [9] and in experiment [10] was more than 100 µM throughout.
Take `CC(=O)Nc1c(I)c(C(=O)O)c(I)c(N(C)C(C)=O)c1I`: the GI50 in experiment [1], in experiment [2], in [3], in experiment [4], in experiment [5] and in [6] was more than 100 µM in each case. Further, the GI50 in experiment [7], in experiment [8], in experiment [9] and in experiment [10] was more than 100 µM throughout. Besides, the TGI in experiment [1], in experiment [2], in experiment [3], in experiment [4], in [5] and in experiment [6] was more than 100 µM each time. Moreover, the TGI in experiment [7], in experiment [8], in [9] and in experiment [10] was more than 100 µM in each case.
As to `O=S1CCN(Cc2ccc(-c3ccc4ncnc(Nc5ccc(OCc6ccccc6)c(F)c5)c4c3)o2)CC1`, the GI50 in experiment [1] is 7.88 µM; in [2], 13.8 µM; in experiment [3], 1.29 µM; in [4], 10.1 µM; in experiment [5] it was 8.76 µM; in experiment [6] it was 5.61 µM. Besides, the GI50 in [7] was 7.36 µM; in experiment [8], 9.98 µM; in [9], 5.46 µM; in experiment [10], 0.0713 µM. Further, the TGI is more than 22.8 µM in experiment [1]; more than 25 µM in [2]; more than 25 µM in experiment [3]; more than 25 µM in experiment [4]; more than 25 µM in experiment [5]; 19.2 µM in experiment [6]. Besides, the TGI in experiment [7] was more than 25 µM; in experiment [8], more than 25 µM; in experiment [9], 12.2 µM; in experiment [10] it was 0.226 µM.
`O=C1NC(=O)C(N2CCc3ccccc32)=C1c1ccc(Cl)cc1`: the GI50 in experiment [1] is more than 15.5 µM; in experiment [2], more than 25 µM; in experiment [3], more than 25 µM; in [4] it was more than 25 µM; in [5] it was more than 25 µM; in experiment [6], more than 25 µM. The GI50 in [7] is more than 25 µM; in [8], more than 22.8 µM; in experiment [9] it was more than 25 µM; in experiment [10], more than 25 µM. Besides, the TGI in [1], in experiment [2], in experiment [3], in [4], in [5] and in [6] was more than 25 µM each time. Further, the TGI in experiment [7], in [8], in [9] and in [10] was more than 25 µM each time.
As for `O=C1c2ccccc2C(=O)c2c(NCCNCCO)ccc(NCCNCCO)c21`, the GI50 is 2.98 µM and 7.28 µM and 6.25 µM in [1]; 0.422 µM and 0.473 µM and 0.509 µM in [2]; 1.14 µM and 0.55 µM and 0.811 µM in experiment [3]; 2.4 µM and 2.47 µM and 3.52 µM in [4]; 0.151 µM and 0.142 µM and 0.167 µM in experiment [5]; 0.232 µM and 0.281 µM and 0.47 µM in experiment [6]. Also, the GI50 is 42.8 µM and 99.2 µM and > 100 µM in experiment [7]; 2.27 µM and 2.34 µM and 1.67 µM in experiment [8]; 2.22 µM and 2.7 µM and 2.09 µM in [9]; 1.26 µM and 1.45 µM and 2.06 µM in [10]. The TGI in experiment [1] was 14.9 µM and 20.7 µM and 21.7 µM; in experiment [2] it was 4.19 µM and 3.82 µM and 4.76 µM; in [3] it was 10.3 µM and 9.84 µM; in experiment [4] it was 9.12 µM and 21.1 µM and 20.3 µM; in experiment [5], 59.7 µM and 11.5 µM; in [6] it was 2.24 µM and 3.35 µM and 5.4 µM. The TGI in experiment [7] was more than 100 µM; in experiment [8], 17.8 µM and 13.4 µM and 7.54 µM; in experiment [9] it was 5.79 µM and 16.7 µM and 3.77 µM; in experiment [10] it was 11.5 µM and 9.32 µM and 11.8 µM.
For the compound `Cc1ccn2c(-c3csc(Nc4cccc(O)c4)n3)c(C)nc2c1`, the GI50 in experiment [1] was 0.781 µM; in experiment [2], 0.638 µM; in [3], 4.43 µM; in experiment [4], 0.273 µM; in [5] it was 0.591 µM; in [6] it was 14.1 µM. For the same compound, the GI50 in [7] was 0.957 µM; in [8], 0.609 µM; in [9], 0.72 µM; in experiment [10], 1.04 µM. For the same compound, the TGI in experiment [1] amounted to 33.6 µM; in experiment [2] it was 19.1 µM; in experiment [3], 29.1 µM; in experiment [4], 16.4 µM; in experiment [5], 27.9 µM; in experiment [6], 57.4 µM. Also, the TGI is more than 45.1 µM in [7], 29.6 µM in experiment [8], 20.4 µM in [9] and 11.8 µM in [10].
